Biological target: Human immunodeficiency virus type 1 reverse transcriptase (Human immunodeficiency virus 1, UniProt Q72547)
Test: Inhibitory activity against HIV-1 reverse transcriptase

SMILES | IC50
CCN1c2ncccc2-c2ncc(C)n2-c2ccc(N3CC=CCC3)nc21 | 2.7 µM
CCc1nc2n(c1C)-c1cccnc1N(CC)c1ncccc1-2 | 5.63 µM
CCN1c2ncccc2-c2ncc(C)n2-c2c(C)cc(=O)[nH]c21 | 12.2 µM
CCN1c2ncccc2-c2nccn2-c2ccc(N3CC=CCC3)nc21 | 3.9 µM

From ChEMBL document CHEMBL1129551, “All-atom models for the non-nucleoside binding site of HIV-1 reverse transcriptase complexed with inhibitors: a 3D QSAR approach” (J Med Chem, 1996)
